The source made the active and inactive calls. The rule behind the calls is not given here.
What follows are molecules tested on Trypanosoma cruzi (assay: Inhibition of recombinant Trypanosoma cruzi trans-sialidase catalytic N-terminal domain preincubated at 1 mM for 10 mins by continuous fluorimetric assay).
With `COC(=O)c1ccc(O[C@@H]2O[C@H](CO)[C@H](O)[C@H](OC)[C@H]2O)cc1` the inhibition was 7%. For `COC(=O)c1ccc(O[C@@H]2O[C@H](CO)[C@H](O)[C@H](OCC(=O)OC(C)(C)C)[C@H]2O)cc1`, the inhibition was “inactive”. In the case of `COC(=O)c1ccc(O[C@@H]2O[C@H](CO)[C@H](O)[C@H](OCC#N)[C@H]2O)cc1`, the inhibition is reported as 7%. For `CCCCCCCCO[C@@H]1O[C@H](CO)[C@H](O)[C@H](OC)[C@H]1O`, the inhibition was 13%. `COC(=O)c1ccc(O[C@@H]2O[C@H](CO)[C@H](O)[C@H](O)[C@H]2O)cc1` was tested, and the inhibition was 11%. For `COC(=O)c1ccc(O[C@@H]2O[C@H](CO)[C@H](O)[C@H](OCc3nnn[nH]3)[C@H]2O)cc1`, the inhibition was “inactive”. `COC(=O)c1ccc(O[C@@H]2O[C@H](CO)[C@H](O)[C@H](OCC(=O)O)[C@H]2O)cc1` was tested, and the inhibition was “inactive”. For `Cc1ncc(COP(=O)(O)O)c(C=O)c1O`, the inhibition was 68%. `COC(=O)c1ccc(O[C@@H]2O[C@H](CO)[C@H](O)[C@H](O)[C@H]2O)c([N+](=O)[O-])c1` gave an inhibition of 16%. With `COC(=O)c1ccc(O[C@@H]2O[C@H](CO)[C@H](O)[C@H](OCC(=O)OC(C)(C)C)[C@H]2O)c([N+](=O)[O-])c1` the inhibition was “inactive”. `COC(=O)c1ccc(O[C@@H]2O[C@H](CO)[C@H](O)[C@H](OCc3nnn[nH]3)[C@H]2O)c([N+](=O)[O-])c1` showed an inhibition of 18%. `COC(=O)c1ccc(O[C@@H]2O[C@H](CO)[C@H](O)[C@H](OC)[C@H]2O)c([N+](=O)[O-])c1` showed an inhibition of 16%. In the case of `COC(=O)c1ccc(O[C@@H]2O[C@H](CO)[C@H](O)[C@H](OCC#N)[C@H]2O)c([N+](=O)[O-])c1`, the inhibition is reported as “inactive”. With `COC(=O)c1ccc(O[C@@H]2O[C@H](CO)[C@H](O)[C@H](OCC(=O)O)[C@H]2O)c([N+](=O)[O-])c1` the inhibition was 21%.
